{
  "source": "patent US10765114B2",
  "about": "“4-amino-6-(pyridyl and 2-substitutedphenyl)-picolinates and 6-amino-2-(pyridyl and 2-substitutedphenyl)-pyrimidine-4-carboxylates and their use as herbicides” (Dow AgroSciences LLC, priority 2013, dated 2020)",
  "test_in_all_cases": "Post-Emergent Test III (Wheat and Barley)",
  "key": {"POLCO (wild buckwheat)": {"system": "POLCO (wild buckwheat)", "type": "in vivo, Polygonum convolvulus", "details": "for Visual Growth Reduction (%) 21 Days After Application, POLCO: postemergence", "outline": "(§1)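 Plants grown in greenhouse (14 h photoperiod, ~18/17 °C day/night) to second or third true leaf stage were sprayed post-emergence at 187 L/ha in acetone/DMSO-based spray solution with crop oil and surfactant, top rate plus ½× to 1/16× dilutions. Visual injury (0–100%) versus untreated plants was scored after 21 days.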"}, "[1]": {"system": "LAMPU (purple deadnettle)", "type": "in vivo, Lamium purpureum", "details": "for Visual Growth Reduction (%) 21 Days After Application, LAMPU: postemergence", "outline": "as §1"}, "SASKR (Russian thistle)": {"system": "SASKR (Russian thistle)", "type": "in vivo, Salsola tragus", "details": "for Visual Growth Reduction (%) 21 Days After Application, SASKR: postemergence", "outline": "as §1"}, "KCHSC (kochia)": {"system": "KCHSC (kochia)", "type": "in vivo, Kochia scoparia", "outline": "as §1"}, "APESV (windgrass)": {"system": "APESV (windgrass)", "type": "in vivo, Apera spica-venti", "outline": "as §1"}, "TRZSS": {"system": "TRZSS", "type": "in vivo", "outline": "as §1"}, "BRSSS": {"system": "BRSSS", "type": "in vivo", "details": "for Visual Growth Reduction (%) 21 Days After Application, BRSSS: postemergence", "outline": "as §1"}, "HORSS": {"system": "HORSS", "type": "in vivo", "outline": "as §1"}, "[2]": {"details": "effective dose for growth reduction of 50 percent, probit analysis"}, "[3]": {"details": "effective dose for growth reduction of 80 percent, probit analysis"}, "[4]": {"details": "effective dose for growth reduction of 90 percent, probit analysis"}, "[5]": {"details": "effective dose for growth reduction of 10 percent, probit analysis"}, "[6]": {"details": "effective dose for growth reduction of 20 percent, probit analysis"}},
  "data": [
    {"smiles": "COC(=O)c1nc(-c2ccc(Cl)c(F)c2C)cc(N)c1Cl", "note": "[Compound 73]", "values": [
      {"measurement": "Visual Growth Reduction (%) 21 Days After Application, POLCO", "setting": "POLCO (wild buckwheat); 35 g ai/ha", "result": "A (95-100)"},
      {"measurement": "Visual Growth Reduction (%) 21 Days After Application, POLCO", "setting": "POLCO (wild buckwheat); 70 g ai/ha", "result": "A (95-100)"},
      {"measurement": "Visual Growth Reduction (%) 21 Days After Application, POLCO", "setting": "POLCO (wild buckwheat); 140 g ai/ha", "result": "A (95-100)"},
      {"measurement": "GR50, POLCO", "setting": "POLCO (wild buckwheat); [2]", "result": 7, "unit": "g ai/ha"},
      {"measurement": "GR80, POLCO", "setting": "POLCO (wild buckwheat); [3]", "result": 10, "unit": "g ai/ha"},
      {"measurement": "GR90, POLCO", "setting": "POLCO (wild buckwheat); [4]", "result": 12, "unit": "g ai/ha"},
      {"measurement": "Visual Growth Reduction (%) 21 Days After Application, LAMPU", "setting": "[1]; 35 g ai/ha", "result": "A (95-100)"},
      {"measurement": "Visual Growth Reduction (%) 21 Days After Application, LAMPU", "setting": "[1]; 70 g ai/ha", "result": "A (95-100)"},
      {"measurement": "Visual Growth Reduction (%) 21 Days After Application, LAMPU", "setting": "[1]; 140 g ai/ha", "result": "A (95-100)"},
      {"measurement": "GR50, LAMPU", "setting": "[1]; [2]", "result": "<17.5", "unit": "g ai/ha"},
      {"measurement": "GR80, LAMPU", "setting": "[1]; [3]", "result": "<17.5", "unit": "g ai/ha"},
      {"measurement": "GR90, LAMPU", "setting": "[1]; [4]", "result": "<17.5", "unit": "g ai/ha"},
      {"measurement": "Visual Growth Reduction (%) 21 Days After Application, SASKR", "setting": "SASKR (Russian thistle); 35 g ai/ha", "result": "C (75-84)"},
      {"measurement": "Visual Growth Reduction (%) 21 Days After Application, SASKR", "setting": "SASKR (Russian thistle); 70 g ai/ha", "result": "C (75-84)"},
      {"measurement": "Visual Growth Reduction (%) 21 Days After Application, SASKR", "setting": "SASKR (Russian thistle); 140 g ai/ha", "result": "C (75-84)"},
      {"measurement": "GR50, SASKR", "setting": "SASKR (Russian thistle); [2]", "result": 1, "unit": "g ai/ha"},
      {"measurement": "GR80, SASKR", "setting": "SASKR (Russian thistle); [3]", "result": 84, "unit": "g ai/ha"},
      {"measurement": "GR90, SASKR", "setting": "SASKR (Russian thistle); [4]", "result": ">140", "unit": "g ai/ha"},
      {"measurement": "pest or weed control at 35 g/ha", "setting": "KCHSC (kochia); Bassia scoparia, post-emergence, 504 h, 35 g ai/ha, postemergence, read-out: Visual Growth Reduction (%) 21 Days After Application, KCHSC", "result": "85 to 94", "unit": "%"},
      {"measurement": "pest or weed control at 70 g/ha", "setting": "KCHSC (kochia); Bassia scoparia, post-emergence, 504 h, 70 g ai/ha, postemergence, read-out: Visual Growth Reduction (%) 21 Days After Application, KCHSC", "result": "95 to 100", "unit": "%"},
      {"measurement": "pest or weed control at 140 g/ha", "setting": "KCHSC (kochia); Bassia scoparia, post-emergence, 504 h, 140 g ai/ha, postemergence, read-out: Visual Growth Reduction (%) 21 Days After Application, KCHSC", "result": "95 to 100", "unit": "%"},
      {"measurement": "GR50, KCHSC", "setting": "KCHSC (kochia); [2]", "result": 8, "unit": "g ai/ha"},
      {"measurement": "GR80, KCHSC", "setting": "KCHSC (kochia); [3]", "result": 21, "unit": "g ai/ha"},
      {"measurement": "GR90, KCHSC", "setting": "KCHSC (kochia); [4]", "result": 35, "unit": "g ai/ha"},
      {"measurement": "pest or weed control at 35 g/ha", "setting": "APESV (windgrass); Apera spica-venti, post-emergence, 504 h, 35 g ai/ha, postemergence, read-out: Visual Growth Reduction (%) 21 Days After Application, APESV", "result": "45 to 59", "unit": "%"},
      {"measurement": "pest or weed control at 70 g/ha", "setting": "APESV (windgrass); Apera spica-venti, post-emergence, 504 h, 70 g ai/ha, postemergence, read-out: Visual Growth Reduction (%) 21 Days After Application, APESV", "result": "60 to 74", "unit": "%"},
      {"measurement": "pest or weed control at 140 g/ha", "setting": "APESV (windgrass); Apera spica-venti, post-emergence, 504 h, 140 g ai/ha, postemergence, read-out: Visual Growth Reduction (%) 21 Days After Application, APESV", "result": "85 to 94", "unit": "%"},
      {"measurement": "GR50, APESV", "setting": "APESV (windgrass); [2]", "result": 32, "unit": "g ai/ha"},
      {"measurement": "GR80, APESV", "setting": "APESV (windgrass); [3]", "result": 90, "unit": "g ai/ha"},
      {"measurement": "GR90, APESV", "setting": "APESV (windgrass); [4]", "result": ">140", "unit": "g ai/ha"},
      {"measurement": "pest or weed control at 35 g/ha", "setting": "TRZSS; Triticum aestivum, post-emergence, 504 h, 35 g ai/ha, postemergence, read-out: Visual Growth Reduction (%) 21 Days After Application, TRZSS", "result": "60 to 74", "unit": "%"},
      {"measurement": "pest or weed control at 70 g/ha", "setting": "TRZSS; Triticum aestivum, post-emergence, 504 h, 70 g ai/ha, postemergence, read-out: Visual Growth Reduction (%) 21 Days After Application, TRZSS", "result": "60 to 74", "unit": "%"},
      {"measurement": "pest or weed control at 140 g/ha", "setting": "TRZSS; Triticum aestivum, post-emergence, 504 h, 140 g ai/ha, postemergence, read-out: Visual Growth Reduction (%) 21 Days After Application, TRZSS", "result": "75 to 84", "unit": "%"},
      {"measurement": "GR10, TRZSS", "setting": "TRZSS; [5]", "result": 3, "unit": "g ai/ha"},
      {"measurement": "GR20, TRZSS", "setting": "TRZSS; [6]", "result": 6, "unit": "g ai/ha"},
      {"measurement": "Visual Growth Reduction (%) 21 Days After Application, BRSSS", "setting": "BRSSS; 35 g ai/ha", "result": "C (75-84)"},
      {"measurement": "Visual Growth Reduction (%) 21 Days After Application, BRSSS", "setting": "BRSSS; 70 g ai/ha", "result": "B (85-94)"},
      {"measurement": "Visual Growth Reduction (%) 21 Days After Application, BRSSS", "setting": "BRSSS; 140 g ai/ha", "result": "A (95-100)"},
      {"measurement": "GR50, BRSSS", "setting": "BRSSS; [2]", "result": 5, "unit": "g ai/ha"},
      {"measurement": "GR80, BRSSS", "setting": "BRSSS; [3]", "result": 29, "unit": "g ai/ha"},
      {"measurement": "GR90, BRSSS", "setting": "BRSSS; [4]", "result": 73, "unit": "g ai/ha"},
      {"measurement": "pest or weed control at 35 g/ha", "setting": "HORSS; Hordeum vulgare, post-emergence, 504 h, 35 g ai/ha, postemergence, read-out: Visual Growth Reduction (%) 21 Days After Application, HORSS", "result": "60 to 74", "unit": "%"},
      {"measurement": "pest or weed control at 70 g/ha", "setting": "HORSS; Hordeum vulgare, post-emergence, 504 h, 70 g ai/ha, postemergence, read-out: Visual Growth Reduction (%) 21 Days After Application, HORSS", "result": "60 to 74", "unit": "%"},
      {"measurement": "pest or weed control at 140 g/ha", "setting": "HORSS; Hordeum vulgare, post-emergence, 504 h, 140 g ai/ha, postemergence, read-out: Visual Growth Reduction (%) 21 Days After Application, HORSS", "result": "75 to 84", "unit": "%"},
      {"measurement": "GR10, HORSS", "setting": "HORSS; [5]", "result": 2, "unit": "g ai/ha"},
      {"measurement": "GR20, HORSS", "setting": "HORSS; [6]", "result": 5, "unit": "g ai/ha"}
    ]}
  ]
}
